# Patent US20200157563A1, “METHODS OF PRODUCING HUMAN CANCER CELL MODELS AND METHODS OF USE” (The Broad Institute, Inc., priority 2017, published 2020)
# Values joined by “and” are separate entries in the source; they are usually repeats but may differ in a detail not shown here. Equal values may be shown once.
# System: TERT promoter or exon 1
# Experiment: Efficiency of tested Cas9 guide sequences (indel formation after RNP delivery)
# Assay type: cell-based, human
# Conditions: Cas9 guide targeting TERT promoter or exon 1, replicates 1 and 2 listed separately
# Description: Guide sequences for all genes were determined by empirically testing multiple guides per gene for cutting efficiency (on the extreme end, we tested around 40 Cas9 guide sequences for TERT before settling on one that works).
# Applicants also determined guide RNAs for introducing indels at the TERT gene (FIG. 12).
# Mutations were first engineered into CDKN2A (‘C’), BRAF (‘B’), and TERT (‘T’) (FIGS. 19A-19G). Lesions in these three genes happen early in melanoma pathogenesis and are exceptionally common, co-occurring events (Akbani et al. Cell 161:1681-1696 (2015)) that have been hypothesized to suffice for malignant transformation (Shain et al. Nat Rev Cancer 16:345-358 (2016); Shain et al. N Engl J Med 373:1926-1936 (2015)). After electroporation of Cas9 ribonucleoprotein complex (RNP) (Rimm et al. Am J Pathol 154:325-329 (1999)) targeting CDKN2A exon 2, the only exon shared by both p16 and p14 protein products, small insertions and deletions (‘indels’) in the gene underwent natural positive selection during cell culture from a 90-95% allele frequency at day three to nearly 100% by day 42 (FIG. 19A). Into these CDKN2A knockout (‘C’) melanocytes, Applicants next introduced the BRAF V600E mutation by co-delivering Cas9 RNP targeting BRAF exon 15 together with a homologous DNA donor encoding the V600E mutation. Recombinant adeno-associated virus (rAAV) was used to deliver the DNA donor (Rimm et al. Am J Pathol 154:325-329 (1999)) in order to increase the low editing efficiency over plasmid or single-stranded oligodeoxynucleotide donors (data not shown; Dever et al. Nature 539:384-389 (2016)). Over roughly 150 days in culture, the BRAF V600E allele increased from a frequency of 6% at day 3 to nearly 100% at day 155 (FIG. 19B). Finally, into these CDKN2A knockout, BRAF V600E mutant (‘CB’) melanocytes, Applicants introduced the −124C>T (also known as C228T) TERT promoter mutation by co-delivery of Cas9 RNP targeting TERT exon 1 together with a homologous DNA donor encoding TERT −124C>T. The −124C>T TERT promoter mutation allele shifted from a stable allele frequency of 3-5% over the first 30 days in culture to roughly 50% by day 75, and stayed at roughly 50% for more than 300 days of continuous culture (FIG. 19C; this 50% frequency is further discussed below). Engineering the TERT promoter mutation was the most technically difficult of these three mutations, and required testing forty different Cas9 guide sequences to identify a potent reagent for making double stranded breaks near the TERT promoter locus (Table 9), possibly due to the high G:C content or closed chromatin state at this locus (Yeh et al. Nat Commun 8:644 (2017)).
# Cas9 protein, tracrRNA, and crRNAs (‘guides’, Table 20) were purchased and prepared according to manufacturer's instructions (IDT). To generate RNP complexes, 3-6 μg Cas9 and 45 pmol previously annealed crRNA:trRNA were incubated together for 10 minutes at 25° C. before delivery by electroporation. To target CDKN2A, two crRNAs were mixed at a molar ratio of 1:1 (22.5 pmol crRNA 1: 22.5 pmol crRNA 2) and incubated with 3 μg Cas9.
# Electroporation was performed using the Lonza Nucleofector 4D System (program: EO-208) and P3 Primary Cell Nucleofector Kit (Lonza), according to manufacturer's instructions, with optional inclusion of 100 pmol electroporation enhancer (IDT 1075916). After electroporation, cells were incubated with 80 μL of warm media for 10 minutes at 37° C. to enhance recovery and were directly transferred into a tissue culture plate.
# DNA was extracted using QuickExtract DNA Extraction Solution following recommended guidelines (Epicentre). Target genomic loci were amplified using gene-specific primers (Table 21) that included universal handles for later attachment of barcoded Illumina adaptors using an additional round of PCR. […]
Substance,% Indel Post-Editing (3 days post-editing),% Indel Post-Editing (5 days post-editing)
1 (guide TGGGAGGGCCCGGAGGGGGC; chemistry not given here) [compound 1],0.1686% and 0.2057%,–
2 (guide GTCCCCGGCCCAGCCCCCTC; chemistry not given here) [compound 2],0.29% and 0.6087%,–
3 (guide TCCCCGGCCCAGCCCCCTCC; chemistry not given here) [compound 3],0.2836% and 0.473%,–
4 (guide GGGGCTGGGAGGGCCCGGAG; chemistry not given here) [compound 4],0.2787% and 0.05972%,–
5 (guide GGGCTGGGAGGGCCCGGAGG; chemistry not given here) [compound 5],0.3738% and 0.4065%,–
6 (guide GGGAGGGCCCGGAGGGGGCT; chemistry not given here) [compound 6],0.3562% and 0.3112%,–
7 (guide GAGGGGCTGGGAGGGCCCGG; chemistry not given here) [compound 7],0.2257% and 0.1728%,–
8 (guide GGGGGCTGGGCCGGGGACCC; chemistry not given here) [compound 8],–,0.1929% and 0.225%
9 (guide GGCTGGGCCGGGGACCCGGG; chemistry not given here) [compound 9],–,0.5674% and 0.398%
10 (guide GCTGGGCCGGGGACCCGGGA; chemistry not given here) [compound 10],–,0.3155% and 0.389%
11 (guide CTGGGCCGGGGACCCGGGAG; chemistry not given here) [compound 11],–,0.2288% and 0.2733%
12 (guide GCCGGGGACCCGGGAGGGGT; chemistry not given here) [compound 12],–,0.1682% and 0.08339%
13 (guide CCGGGGACCCGGGAGGGGTC; chemistry not given here) [compound 13],–,0.06603% and 0.05525%
14 (guide CGCCCCGTCCCGACCCCTCC; chemistry not given here) [compound 14],–,0.04851% and 0.09263%
15 (guide GCCCCGTCCCGACCCCTCCC; chemistry not given here) [compound 15],–,0.375%
16 (guide GGCCGCGGAAAGGAAGGGGA; chemistry not given here) [compound 16],0.1942% and 0.09556%,–
17 (guide GAAACTCGCGCCGCGAGGAG; chemistry not given here) [compound 17],0.03391% and 0.163%,–
18 (guide GCCCCTCCCCTTCCTTTCCG; chemistry not given here) [compound 18],2.299% and 1.045%,–
19 (guide TGCCTGAAACTCGCGCCGCG; chemistry not given here) [compound 19],0.3096% and 0.2587%,–
20 (guide GCGGGGCCGCGGAAAGGAAG; chemistry not given here) [compound 20],0.1376% and 0.1734%,–

Substance,% Indel Post-Editing (3 days post-editing),% Indel Post-Editing (5 days post-editing)
21 (guide AAACTCGCGCCGCGAGGAGA; chemistry not given here) [compound 21],0.5362% and 0.5957%,–
22 (guide GGCGGGGCCGCGGAAAGGAA; chemistry not given here) [compound 22],1.212% and 0.3044%,–
23 (guide GCCGCGGAAAGGAAGGGGAG; chemistry not given here) [compound 23],0.7353% and 0.8087%,–
24 (guide GGGCCGCGGAAAGGAAGGGG; chemistry not given here) [compound 24],0.19% and 0.2632%,–
25 (guide GGAAAGGAAGGGGAGGGGCT; chemistry not given here) [compound 25],0.6945% and 1.088%,–
26 (guide GCTGCGCAGCCACTACCGCG; chemistry not given here) [compound 26],9.609% and 9.23%,–
27 (guide TGGCCAGCGGCAGCACCTCG; chemistry not given here) [compound 27],13.61% and 13.93%,–
28 (guide GGGGAGCGCGCGGCATCGCG; chemistry not given here) [compound 28],1.175% and 1.846%,–
29 (guide GCTGCGCAGCAGGGAGCGCA; chemistry not given here) [compound 29],0.5165% and 0.5841%,–
31 (guide CCACGTTCGTGCGGCGCCTG; chemistry not given here) [compound 31],3.555% and 3.026%,–
32 (guide TGCCGCTGGCCACGTTCGTG; chemistry not given here) [compound 32],0.1665% and 0.1061%,–
33 (guide CGCCGCACGAACGTGGCCAG; chemistry not given here) [compound 33],2.925% and 2.489%,–
34 (guide GCGGTAGTGGCTGCGCAGCA; chemistry not given here) [compound 34],27.04% and 29.27%,–
35 (guide CTACCGCGAGGTGCTGCCGC; chemistry not given here) [compound 35],1.038% and 1.547%,–
36 (guide GCGGCAGCACCTCGCGGTAG; chemistry not given here) [compound 36],2.113% and 1.684%,–
37 (guide GGGAGCGCACGGCTCGGCAG; chemistry not given here) [compound 37],5.208% and 5.478%,–
38 (guide GGAGCGCACGGCTCGGCAGC; chemistry not given here) [compound 38],0.8353% and 1.797%,–
39 (guide GAGCGCACGGCTCGGCAGCG; chemistry not given here) [compound 39],6.049% and 7.137%,–
40 (guide GCTCGGCAGCGGGGAGCGCG; chemistry not given here) [compound 40],14.09% and 12.53%,–
